Measurements from patent US10206394B2, “Herbicidal compounds” (Syngenta Participations AG, priority 2014, dated 2019).
Like-named read-outs stand apart in the source and are kept apart here.

Experiments:
Type in all cases: in vivo
[1] = tested on: Winter Wheat variety 'Hereward'; test: Glasshouse assay for crop safety, post-emergence, +/- safener cloquintocet-mexyl (CQC), percentage phytotoxicity; settings: 250 g/ha, evaluated after 13 days, 100=total damage, 0=no damage; for Post-emergence Crop Selectivity, percentage phytotoxicity, Wheat +CQC: with safener cloquintocet-mexyl (CQC) seed treatment 0.5 g/kg seed; for Post-emergence Crop Selectivity, percentage phytotoxicity, Wheat − CQC: without safener cloquintocet-mexyl (CQC)
From the text: Test—Glasshouse Assay for Crop Safety.
Seeds of the Winter Wheat variety ‘Hereward’ were seed treated with a wettable powder formulation of the cereal herbicide safener, cloquintocet mexyl, at a rate of 0.5 grams per kilogram of dry seed prior to the initiation of glasshouse testing. Three seeds were sown per 1.5 inch plastic pot into a sandy loam soil at a depth of 1 cm, 8 days prior to application of the test compounds and was watered and grown under controlled conditions in a glasshouse (at 24/16° C., day/night; 14 hours light; 65% humidity). The plants were sprayed Post-emergence with an aqueous spray solution derived from the formulation of the technical active ingredient in acetone/water (50:50) solution containing 0.5% Tween 20 (polyoxyethelyene sorbitan monolaurate, CAS RN 9005-64-5).
The test plants were then grown in a glasshouse under controlled conditions (at 24/16° C., day/night; 14 hours light; 65% humidity) and watered twice daily. After 13 days for pre and post-emergence, the test was evaluated (100=total damage to plant; 0=no damage to plant).

[2] = tested on: Alopecurus myosuroides (ALOMY); test: Glasshouse assay for herbicidal activity (pre- and post-emergence), percentage phytotoxicity; settings: Alopecurus myosuroides, Rate 250 g/ha, 100%=total damage, 0%=no damage
Method in brief: (§1)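 Visually rated damage, 0–100%. PRE spray 1 d after sowing, scored 20 DAA; POST spray ~12 d, scored 15 DAA. Glasshouse at 65% humidity, 16 h day.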

[3] = tested on: Lolium perenne (LOLPE); test: as above; settings: Lolium perenne, Rate 250 g/ha, 100%=total damage, 0%=no damage
Method in brief: as §1

[4] = tested on: Avena fatua (AVEFA); test: as above; settings: Avena fatua, Rate 250 g/ha, 100%=total damage, 0%=no damage
Method in brief: as §1

[5] = tested on: Echinochloa crus-galli (ECHCG); test: as above; settings: Echinochloa crus-galli, Rate 250 g/ha, 100%=total damage, 0%=no damage
Method in brief: as §1

[6] = post-emergence, 360 h, post-emergence, assessed visually 15 DAA, read-out: Post-emergence herbicidal activity (percentage phytotoxicity) ALOMY POST
[7] = pre-emergence, 480 h, pre-emergence, assessed visually 20 DAA, read-out: Pre-emergence herbicidal activity (percentage phytotoxicity) ALOMY PRE
[8] = post-emergence, 360 h, post-emergence, assessed visually 15 DAA, read-out: Post-emergence herbicidal activity (percentage phytotoxicity) LOLPE POST
[9] = pre-emergence, 480 h, pre-emergence, assessed visually 20 DAA, read-out: Pre-emergence herbicidal activity (percentage phytotoxicity) LOLPE PRE
[10] = post-emergence, 360 h, post-emergence, assessed visually 15 DAA, read-out: Post-emergence herbicidal activity (percentage phytotoxicity) AVEFA POST
[11] = pre-emergence, 480 h, pre-emergence, assessed visually 20 DAA, read-out: Pre-emergence herbicidal activity (percentage phytotoxicity) AVEFA PRE
[12] = post-emergence, 360 h, post-emergence, assessed visually 15 DAA, read-out: Post-emergence herbicidal activity (percentage phytotoxicity) ECHCG POST
[13] = pre-emergence, 480 h, pre-emergence, assessed visually 20 DAA, read-out: Pre-emergence herbicidal activity (percentage phytotoxicity) ECHCG PRE

SMILES	Post-emergence Crop Selectivity, percentage phytotoxicity, Wheat +CQC [1]	Post-emergence Crop Selectivity, percentage phytotoxicity, Wheat − CQC [1]	pest or weed control at 250 g/ha [2, 6]	pest or weed control at 250 g/ha [2, 7]	pest or weed control at 250 g/ha [3, 8]	pest or weed control at 250 g/ha [3, 9]	pest or weed control at 250 g/ha [4, 10]	pest or weed control at 250 g/ha [4, 11]	pest or weed control at 250 g/ha [5, 12]	pest or weed control at 250 g/ha [5, 13]
Cc1cc(C)c(C2C(=O)CC(CC(=O)NCCc3ccccc3)C2=O)c(C)c1 (centres unmarked) [Compound A1, 2-[2,4-dioxo-3-(2,4,6-trimethylphenyl)cyclopentyl]-N-phenethyl-acetamide]	0%	60%	60%	60%	80%	100%	60%	60%	80%	90%
Cc1cc(C)c(C2C(=O)CC(CC(=O)NC(C)(C)C)C2=O)c(C)c1 (centres unmarked) [Compound A2, N-tert-butyl-2-[2,4-dioxo-3-(2,4,6-trimethylphenyl)cyclopentyl]-acetamide]	10%	10%	80%	80%	80%	80%	70%	10%	50%	70%
CCC(C)NC(=O)CC1CC(=O)C(c2c(C)cc(C)cc2C)C1=O (centres unmarked) [Compound A3]	10%	60%	90%	100%	90%	100%	90%	90%	90%	100%
Cc1cc(C)c(C2C(=O)CC(CC(=O)NCc3ccccc3)C2=O)c(C)c1 (centres unmarked) [Compound A4]	10%	60%	50%	50%	90%	80%	80%	30%	80%	70%
Cc1cc(C)c(C2C(=O)CC(CC(=O)NCC(C)C)C2=O)c(C)c1 (centres unmarked) [Compound A5]	10%	80%	90%	100%	80%	100%	80%	70%	80%	100%
Cc1cc(C)c(C2C(=O)CC(CC(=O)NCc3cccs3)C2=O)c(C)c1 (centres unmarked) [Compound A6]	10%	70%	90%	90%	90%	100%	90%	60%	90%	100%
Cc1cc(C)c(C2C(=O)CC(CC(=O)NC(C)C)C2=O)c(C)c1 (centres unmarked) [Compound A7]	20%	30%	90%	80%	100%	100%	90%	60%	100%	90%
CCCCNC(=O)CC1CC(=O)C(c2c(C)cc(C)cc2C)C1=O (centres unmarked) [Compound A12]	0%	70%	100%	90%	90%	100%	80%	70%	80%	100%
Cc1cc(C)c(C2C(=O)CC(CC(=O)NCC(C)(C)C)C2=O)c(C)c1 (centres unmarked) [Compound A14]	10%	60%	80%	90%	80%	80%	70%	70%	80%	100%
Cc1cc(C)c(C2C(=O)CC(CC(=O)NC3CC3)C2=O)c(C)c1 (centres unmarked) [Compound A15]	20%	20%	80%	80%	100%	100%	80%	50%	100%	100%
COCC(C)NC(=O)CC1CC(=O)C(c2c(C)cc(C)cc2C)C1=O (centres unmarked) [Compound A16]	30%	80%	90%	90%	80%	80%	90%	90%	100%	100%
Cc1cc(C)c(C2C(=O)CC(CC(=O)NC3(c4ccccn4)CC3)C2=O)c(C)c1 (centres unmarked) [Compound A18]	20%	70%	70%	60%	80%	60%	50%	20%	70%	60%
Cc1cc(C)c(C2C(=O)CC(CC(=O)NCC3CC3)C2=O)c(C)c1 (centres unmarked) [Compound A19]	40%	80%	90%	90%	90%	90%	80%	70%	80%	90%
CCNC(=O)CC1CC(=O)C(c2c(C)cc(C)cc2C)C1=O (centres unmarked) [Compound A20]	20%	40%	80%	70%	100%	100%	80%	70%	100%	100%
